Assays:
[1] = target: T1, Arabidopsis TGD2, DsRed-TGD2C WT (DR-WT) fusion protein, residues 119-381, SEQ ID NO:107 (Arabidopsis thaliana, UniProt Q9LTR2); experiment: Liposome-association assay (mixed PA/PC liposomes), DsRed-TGD2C WT; format: binding
T1 construct: made in house; host or cells: Escherichia coli BL21 (DE3)
T1 sequence (Q9LTR2 119-381): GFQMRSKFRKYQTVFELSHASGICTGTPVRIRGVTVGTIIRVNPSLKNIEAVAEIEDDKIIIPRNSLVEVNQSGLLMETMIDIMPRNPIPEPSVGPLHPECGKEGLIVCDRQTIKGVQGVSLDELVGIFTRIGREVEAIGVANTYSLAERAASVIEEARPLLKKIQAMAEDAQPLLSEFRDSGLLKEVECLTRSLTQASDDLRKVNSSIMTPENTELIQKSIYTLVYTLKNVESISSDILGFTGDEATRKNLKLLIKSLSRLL
Procedure: FIG. 2A: Analysis by liposome-association assay. A mixture of dioleoyl-PA and dioleoyl-PC was used where the weight percent of PA was varied from 0-100% (wt/wt), maintaining the total lipid invariant at 250 μg. 1 μg protein was used. P, protein recovered in the absence of lipids.
In this assay, purified recombinant proteins were incubated with liposomes for 30 min at 30° C. before centrifugation at 20,000 g for 10 min to pellet the liposomes. Proteins bound to the liposomes were found associated with the lipid pellet, whereas non-binding proteins remained in the supernatant. In an effort to determine the optimal concentration of PA required for high specificity binding, a PA/PC liposome mixture containing varying weight fractions of PA was prepared and incubated with DsRed-TGD2CWT or DsRed alone.
The liposome association assay was performed as previously reported. (31). Briefly, lipids (dioleoyl-phosphatidylcholine, DOPC or dioleoyl-PA, DOPA) were incubated in TBS (50 mM Tris-HCl, pH 7; 0.1 M NaCl) at 37° C. for an hour followed by vigorous vortexing for 5 min. The liposomes were precipitated at 20,000 g and washed twice with ice-cold TBS.
Liposomes (200 μg) were mixed with purified DsRed-TGD2 fusion protein and TBS to make a final 100 μL solution. The mixture was incubated at 30° C. for 30 min and washed twice with ice-cold TBS by centrifugation at 20,000 g at 4° C. The liposome pellet mixed with sample buffer was analyzed by SDS-PAGE (28). Immuno-detection of the His-tagged protein was accomplished using the above mentioned Penta-His antibody at 1:15,000 and the anti mouse antibody at 1:75,000 dilution.
The protein band was visualized by chemiluminescent detection kit from Sigma. The autoradiography film was scanned, distinct protein bands were quantified using computer software Multi Gauge V3.0 (Fujifilm USA, Valhalla, N.Y.) and resulted data were plotted and analyzed by OriginPro8 (Origin lab corporation, Northampton, Mass.).

[2] = target: T2, Arabidopsis TGD4, DsRED-TGD4C-His (C-terminal fragment 309-479, SEQ ID NO: 131) (Arabidopsis thaliana, UniProt Q9M903); experiment: Liposome association assay, DsRED-TGD4C-His; format: binding; conditions: dioleoyl-PtdOH/dioleoyl-PtdCho liposomes, 0 to 80% PtdOH, FIG. 19B
T2 sequence (Q9M903 309-479): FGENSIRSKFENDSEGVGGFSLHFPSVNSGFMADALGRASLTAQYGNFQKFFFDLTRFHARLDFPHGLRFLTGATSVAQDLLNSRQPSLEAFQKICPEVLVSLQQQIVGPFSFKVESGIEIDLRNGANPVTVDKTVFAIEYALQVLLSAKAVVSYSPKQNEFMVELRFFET
Procedure: Liposome Association Assay:
The liposome association assay was adapted from (Awai et al., 2006, Lu and Benning, 2009) with minor modifications. Dioleoyl-PtdCho and PtdOH with different acyl chain lengths and desaturation levels were used for making liposomes. In other liposomes 1-palmitoyl-2-(12-((7-nitro-2-1,3-benzoxadiazol-4-yl)amino)dodecanoyl)-sn-glycero-3-phosphate (NBD-PtdOH; Avanti, Alabaster, Ala.) was used. The lipids were mixed at indicated ratios to give a total lipid amount of 250 μg. The lipids were dried under a stream of nitrogen, resuspended in 0.5 ml TBS buffer with 0.2 M choline chloride and hydrated at 37° C. for 1 hour followed by vigorous vortexing for 2 minutes. The resulting multi-lamellar vesicles were centrifuged at 13,000×g for 10 minutes and then washed once with TBS buffer containing 0.2 M choline chloride. The liposomes were resuspended into 100 μl TBS buffer with 0.2 M choline chloride and incubated with 2 μg purified DsRED-TGD4-His protein and its derivatives. The protein liposome mixture was incubated on ice for 30 minutes followed by centrifugation at 13,000×g for 10 minutes and two washes with 500 μl TBS containing 0.2 M choline chloride. The resulting protein-liposome pellet was resuspended in 20 μl 2× Laemmli buffer (Laemmli, 1970) and processed by SDS-PAGE (Shapiro and Maizel, 1969).

[3] = DR-WT as quantification control, mixed PA/PC liposomes, FIGS. 5A-5C

CCCCCCCC/C=C\CCCCCCCC(=O)OC[C@H](COP(=O)(O)O)OC(=O)CCCCCCC/C=C\CCCCCCCC [PA, phosphatidic acid]
Hill number, PA binding [1, 3]: 2.8
modified Kd, PA binding [1, 3]: 37.66 mol %
binding to PA or PC ([1]; PC, PA/PC or PA liposomes, FIG. 3B): significant binding
Hill number, PA binding ([1]; dioleoyl-PA/dioleoyl-PC liposomes, FIG. 2B): 5.8
PtdOH binding affinity [2]: much lower affinity compared to the wild-type protein DsRED-TGD4-His but still bound PtdOH
